The values that follow come from US7785828B1 (priority 2003, dated 2010).

Some test systems named below: Fusarium graminearum; Septoria tritici; Mycosphaerella fijiensis.
Common to all, as to assay type: cell-based

For “NLCERASKTWSGNCGNTKHCDNQCKSWEGAAHGACHKRNGKWKCFCYFNC (Defensin like) [L9-18]”, the “Antifungal activity, Fusarium graminearum (improvement compared to DmAMP1)” value with Fusarium graminearum is given as “++ (key: + indicating 1- to 5-fold improvement compared to DmAMP1; ++ indicating >5- to 10-fold improvement; +++ indicating >10-fold improvement)”. Besides, the “Antifungal activity, Septoria tritici (improvement compared to DmAMP1)” value with Septoria tritici was “++ (key: + indicating 1- to 5-fold improvement compared to DmAMP1; ++ indicating >5- to 10-fold improvement; +++ indicating >10-fold improvement)”. Also, the “Antifungal activity, Mycosphaerella fijiensis (improvement compared to DmAMP1)” value in the test on Mycosphaerella fijiensis is “+ (key: + indicating 1- to 5-fold improvement compared to DmAMP1; ++ indicating >5- to 10-fold improvement; +++ indicating >10-fold improvement)”.
Take “NLCERASKTWSGNCGNTKHCDNQCKSWEGAAHGACHVRNGKHKCFCYFNC (Defensin like) [L6-61]”: the “Antifungal activity, Fusarium graminearum (improvement compared to DmAMP1)” value in the test on Fusarium graminearum is on record as “+++ (key: + indicating 1- to 5-fold improvement compared to DmAMP1; ++ indicating >5- to 10-fold improvement; +++ indicating >10-fold improvement)”. In the test on Septoria tritici, the “Antifungal activity, Septoria tritici (improvement compared to DmAMP1)” value is “++ (key: + indicating 1- to 5-fold improvement compared to DmAMP1; ++ indicating >5- to 10-fold improvement; +++ indicating >10-fold improvement)”. Besides, the “Antifungal activity, Mycosphaerella fijiensis (improvement compared to DmAMP1)” value with Mycosphaerella fijiensis is given as “+ (key: + indicating 1- to 5-fold improvement compared to DmAMP1; ++ indicating >5- to 10-fold improvement; +++ indicating >10-fold improvement)”.
“NLCERASKTWSGNCGNTKHCDNQCRNWEGAKHGACHKRSGKWKCFCYFNC (Defensin like) [L9-30]”: in the test with Fusarium graminearum, the “Antifungal activity, Fusarium graminearum (improvement compared to DmAMP1)” value is given as “++ (key: + indicating 1- to 5-fold improvement compared to DmAMP1; ++ indicating >5- to 10-fold improvement; +++ indicating >10-fold improvement)”. For the same sequence, the “Antifungal activity, Septoria tritici (improvement compared to DmAMP1)” value with Septoria tritici was “+ (key: + indicating 1- to 5-fold improvement compared to DmAMP1; ++ indicating >5- to 10-fold improvement; +++ indicating >10-fold improvement)”. For the same sequence, the “Antifungal activity, Mycosphaerella fijiensis (improvement compared to DmAMP1)” value with Mycosphaerella fijiensis is reported as “+ (key: + indicating 1- to 5-fold improvement compared to DmAMP1; ++ indicating >5- to 10-fold improvement; +++ indicating >10-fold improvement)”.
For the sequence “NLCERASKTWSGNCGNTKHCDNQCRNWEGAKHGACHVRNGKWKCFCYFNC [L6-40] (Defensin like)”, the “Antifungal activity, Fusarium graminearum (improvement compared to DmAMP1)” value with Fusarium graminearum is “+++ (key: + indicating 1- to 5-fold improvement compared to DmAMP1; ++ indicating >5- to 10-fold improvement; +++ indicating >10-fold improvement)”. The “Antifungal activity, Septoria tritici (improvement compared to DmAMP1)” value in the test with Septoria tritici is reported as “+++ (key: + indicating 1- to 5-fold improvement compared to DmAMP1; ++ indicating >5- to 10-fold improvement; +++ indicating >10-fold improvement)”. Further, the “Antifungal activity, Mycosphaerella fijiensis (improvement compared to DmAMP1)” value with Mycosphaerella fijiensis is “+ (key: + indicating 1- to 5-fold improvement compared to DmAMP1; ++ indicating >5- to 10-fold improvement; +++ indicating >10-fold improvement)”.
Take “NLCERASKTWSGNCGNTKHCDNQCRSWEGAKHGACHVRSGKHKCFCYFNC (Defensin like) [L9-16]”: the “Antifungal activity, Fusarium graminearum (improvement compared to DmAMP1)” value in the test on Fusarium graminearum is “+++ (key: + indicating 1- to 5-fold improvement compared to DmAMP1; ++ indicating >5- to 10-fold improvement; +++ indicating >10-fold improvement)”. In the test with Septoria tritici, the “Antifungal activity, Septoria tritici (improvement compared to DmAMP1)” value is “++ (key: + indicating 1- to 5-fold improvement compared to DmAMP1; ++ indicating >5- to 10-fold improvement; +++ indicating >10-fold improvement)”. In the test on Mycosphaerella fijiensis, the “Antifungal activity, Mycosphaerella fijiensis (improvement compared to DmAMP1)” value is on record as “+ (key: + indicating 1- to 5-fold improvement compared to DmAMP1; ++ indicating >5- to 10-fold improvement; +++ indicating >10-fold improvement)”.
“NLCERASKTWSGNCGNTKHCDTQCKNWEGAAHGACHKRNGKWKCFCYFNC (Defensin like) [L9-13]”: the “Antifungal activity, Fusarium graminearum (improvement compared to DmAMP1)” value in the test on Fusarium graminearum is listed as “++ (key: + indicating 1- to 5-fold improvement compared to DmAMP1; ++ indicating >5- to 10-fold improvement; +++ indicating >10-fold improvement)”. The “Antifungal activity, Septoria tritici (improvement compared to DmAMP1)” value with Septoria tritici was “+ (key: + indicating 1- to 5-fold improvement compared to DmAMP1; ++ indicating >5- to 10-fold improvement; +++ indicating >10-fold improvement)”. Also, in the test with Mycosphaerella fijiensis, the “Antifungal activity, Mycosphaerella fijiensis (improvement compared to DmAMP1)” value is on record as “+ (key: + indicating 1- to 5-fold improvement compared to DmAMP1; ++ indicating >5- to 10-fold improvement; +++ indicating >10-fold improvement)”.
As to “NLCERASKTWSGNCGNTKHCDTQCKNWEGAKHGACHKRSGKWMCFCYFNC (Defensin like) [L3-144]”, in the test with Fusarium graminearum, the “Antifungal activity, Fusarium graminearum (improvement compared to DmAMP1)” value was “++ (key: + indicating 1- to 5-fold improvement compared to DmAMP1; ++ indicating >5- to 10-fold improvement; +++ indicating >10-fold improvement)”. Also, the “Antifungal activity, Septoria tritici (improvement compared to DmAMP1)” value with Septoria tritici is “+ (key: + indicating 1- to 5-fold improvement compared to DmAMP1; ++ indicating >5- to 10-fold improvement; +++ indicating >10-fold improvement)”. Besides, the “Antifungal activity, Mycosphaerella fijiensis (improvement compared to DmAMP1)” value with Mycosphaerella fijiensis was “+ (key: + indicating 1- to 5-fold improvement compared to DmAMP1; ++ indicating >5- to 10-fold improvement; +++ indicating >10-fold improvement)”.
With “NLCERASKTWSGNCGNTKHCDTQCKNWEGAKHGACHVRNGKHKCFCYFNC (Defensin like) [L6-83]”, the “Antifungal activity, Fusarium graminearum (improvement compared to DmAMP1)” value in the test with Fusarium graminearum is “+++ (key: + indicating 1- to 5-fold improvement compared to DmAMP1; ++ indicating >5- to 10-fold improvement; +++ indicating >10-fold improvement)”. Also, the “Antifungal activity, Septoria tritici (improvement compared to DmAMP1)” value in the test with Septoria tritici is “+ (key: + indicating 1- to 5-fold improvement compared to DmAMP1; ++ indicating >5- to 10-fold improvement; +++ indicating >10-fold improvement)”. Also, in the test on Mycosphaerella fijiensis, the “Antifungal activity, Mycosphaerella fijiensis (improvement compared to DmAMP1)” value is recorded as “+ (key: + indicating 1- to 5-fold improvement compared to DmAMP1; ++ indicating >5- to 10-fold improvement; +++ indicating >10-fold improvement)”.
With “NLCERASKTWSGNCGNTKHCDTQCKSWEGAAHGACHVRNGKHKCFCYFNC (Defensin like) [L6-27]”, in the test on Fusarium graminearum, the “Antifungal activity, Fusarium graminearum (improvement compared to DmAMP1)” value is listed as “+++ (key: + indicating 1- to 5-fold improvement compared to DmAMP1; ++ indicating >5- to 10-fold improvement; +++ indicating >10-fold improvement)”. Moreover, in the test on Septoria tritici, the “Antifungal activity, Septoria tritici (improvement compared to DmAMP1)” value is on record as “+++ (key: + indicating 1- to 5-fold improvement compared to DmAMP1; ++ indicating >5- to 10-fold improvement; +++ indicating >10-fold improvement)”. Besides, in the test with Mycosphaerella fijiensis, the “Antifungal activity, Mycosphaerella fijiensis (improvement compared to DmAMP1)” value is reported as “+ (key: + indicating 1- to 5-fold improvement compared to DmAMP1; ++ indicating >5- to 10-fold improvement; +++ indicating >10-fold improvement)”.
For the sequence “NLCERASKTWSGNCGNTKHCDTQCKSWEGAKHGACHVRNGKHKCFCYFNC (Defensin like) [L9-26]”, the “Antifungal activity, Fusarium graminearum (improvement compared to DmAMP1)” value with Fusarium graminearum is listed as “+++ (key: + indicating 1- to 5-fold improvement compared to DmAMP1; ++ indicating >5- to 10-fold improvement; +++ indicating >10-fold improvement)”. Moreover, in the test with Septoria tritici, the “Antifungal activity, Septoria tritici (improvement compared to DmAMP1)” value is given as “+++ (key: + indicating 1- to 5-fold improvement compared to DmAMP1; ++ indicating >5- to 10-fold improvement; +++ indicating >10-fold improvement)”. Besides, the “Antifungal activity, Mycosphaerella fijiensis (improvement compared to DmAMP1)” value in the test with Mycosphaerella fijiensis was “++ (key: + indicating 1- to 5-fold improvement compared to DmAMP1; ++ indicating >5- to 10-fold improvement; +++ indicating >10-fold improvement)”.
With “NLCERASKTWSGNCGNTKHCDTQCRNWEGAAHGACHKRNGKWKCFCYFNC (Defensin like) [L6-12]”, the “Antifungal activity, Fusarium graminearum (improvement compared to DmAMP1)” value in the test with Fusarium graminearum is recorded as “+++ (key: + indicating 1- to 5-fold improvement compared to DmAMP1; ++ indicating >5- to 10-fold improvement; +++ indicating >10-fold improvement)”. In addition, in the test with Septoria tritici, the “Antifungal activity, Septoria tritici (improvement compared to DmAMP1)” value was “+ (key: + indicating 1- to 5-fold improvement compared to DmAMP1; ++ indicating >5- to 10-fold improvement; +++ indicating >10-fold improvement)”. Besides, the “Antifungal activity, Mycosphaerella fijiensis (improvement compared to DmAMP1)” value in the test with Mycosphaerella fijiensis is given as “+ (key: + indicating 1- to 5-fold improvement compared to DmAMP1; ++ indicating >5- to 10-fold improvement; +++ indicating >10-fold improvement)”.
Regarding “NLCERASKTWSGNCGNTKHCDTQCRNWEGAAHGACHVRNGKHKCFCYFNC (NLCERASKTWSGNCGNTKHCDTQCKNWEGAAHGACHVRNGKHKCFCYFNC; Defensin like) [L6-57]”, the “Antifungal activity, Fusarium graminearum (improvement compared to DmAMP1)” value with Fusarium graminearum is given as “+++ (key: + indicating 1- to 5-fold improvement compared to DmAMP1; ++ indicating >5- to 10-fold improvement; +++ indicating >10-fold improvement)”. In the test on Septoria tritici, the “Antifungal activity, Septoria tritici (improvement compared to DmAMP1)” value is “+ (key: + indicating 1- to 5-fold improvement compared to DmAMP1; ++ indicating >5- to 10-fold improvement; +++ indicating >10-fold improvement)”. Also, the “Antifungal activity, Mycosphaerella fijiensis (improvement compared to DmAMP1)” value in the test with Mycosphaerella fijiensis was “++ (key: + indicating 1- to 5-fold improvement compared to DmAMP1; ++ indicating >5- to 10-fold improvement; +++ indicating >10-fold improvement)”.
“NLCERASKTWSGNCGNTKHCDTQCRNWEGAKHGACHKRNGKWKCFCYFNC (Defensin like) [L9-32]”: the “Antifungal activity, Fusarium graminearum (improvement compared to DmAMP1)” value with Fusarium graminearum is “++ (key: + indicating 1- to 5-fold improvement compared to DmAMP1; ++ indicating >5- to 10-fold improvement; +++ indicating >10-fold improvement)”. Moreover, the “Antifungal activity, Septoria tritici (improvement compared to DmAMP1)” value in the test on Septoria tritici is “+ (key: + indicating 1- to 5-fold improvement compared to DmAMP1; ++ indicating >5- to 10-fold improvement; +++ indicating >10-fold improvement)”. In addition, the “Antifungal activity, Mycosphaerella fijiensis (improvement compared to DmAMP1)” value in the test on Mycosphaerella fijiensis is “+ (key: + indicating 1- to 5-fold improvement compared to DmAMP1; ++ indicating >5- to 10-fold improvement; +++ indicating >10-fold improvement)”.
In the case of “NLCERASKTWSGNCGNTKHCDTQCRNWEGAKHGACHKRSGKWKCFCYFNC (Defensin like) [L9-09]”, the “Antifungal activity, Fusarium graminearum (improvement compared to DmAMP1)” value with Fusarium graminearum is on record as “+++ (key: + indicating 1- to 5-fold improvement compared to DmAMP1; ++ indicating >5- to 10-fold improvement; +++ indicating >10-fold improvement)”. In the test on Septoria tritici, the “Antifungal activity, Septoria tritici (improvement compared to DmAMP1)” value was “+ (key: + indicating 1- to 5-fold improvement compared to DmAMP1; ++ indicating >5- to 10-fold improvement; +++ indicating >10-fold improvement)”. Moreover, in the test on Mycosphaerella fijiensis, the “Antifungal activity, Mycosphaerella fijiensis (improvement compared to DmAMP1)” value is recorded as “+ (key: + indicating 1- to 5-fold improvement compared to DmAMP1; ++ indicating >5- to 10-fold improvement; +++ indicating >10-fold improvement)”.
Regarding “NLCERASKTWSGNCGNTKHCDTQCRNWEGAKHGACHVRSGKHKCFCYFNC (Defensin like) [L9-27]”, in the test on Fusarium graminearum, the “Antifungal activity, Fusarium graminearum (improvement compared to DmAMP1)” value is “++ (key: + indicating 1- to 5-fold improvement compared to DmAMP1; ++ indicating >5- to 10-fold improvement; +++ indicating >10-fold improvement)”. Besides, the “Antifungal activity, Septoria tritici (improvement compared to DmAMP1)” value in the test with Septoria tritici was “++ (key: + indicating 1- to 5-fold improvement compared to DmAMP1; ++ indicating >5- to 10-fold improvement; +++ indicating >10-fold improvement)”. The “Antifungal activity, Mycosphaerella fijiensis (improvement compared to DmAMP1)” value in the test with Mycosphaerella fijiensis is on record as “++ (key: + indicating 1- to 5-fold improvement compared to DmAMP1; ++ indicating >5- to 10-fold improvement; +++ indicating >10-fold improvement)”.
